Measurements published in US10005769B2, “2,3-dihydrobenzofuran-5YL compounds as DYRK kinase inhibitors” (4SC DISCOVERY GMBH, priority 2013, dated 2018).

Biological target: DYRK1B (Homo sapiens (Human), UniProt Q9Y463)
Test: DYRK1B Kinase Assay (33P ATP, DYRKtide substrate, Reaction Biology Corp.)
Assay type: biochemical
Details: 0.3 nM DYRK1B, 20 μM DYRKtide, 10 μM ATP, 25° C., 120 min
Procedure: The assay was carried out by Reaction Biology Corp., […], Pa., USA according to specifications by Reaction Biology Corp., as detailed herein below and further described in Anastassiadis et al., Nature Biotechnology, 29 (2011) 1039-1045. The substrate DYRKtide (synthetic peptide RRRFRPASPLRGPPK) was dissolved in freshly prepared Base Reaction Buffer (20 mM Hepes (pH 7.5), 10 mM MgCl2, 1 mM EGTA, 0.02% Brij35, 0.02 mg/ml BSA, 0.1 mM Na3VO4, 2 mM DTT, 1% DMSO) at a concentration of 20 μM. DYRK1B was added to the substrate solution in a concentration of 0.3 nM and gently mixed. Dilution series of the compounds according to the present invention in DMSO were prepared. Each dilution was added to a batch of the above reaction mix, followed 20 min later by addition of a mixture of ATP and ^33P ATP (specific activity 0.01 μCi/μl final) to a final concentration of 10 μM. Reactions were carried out at 25° C. for 120 min, followed by spotting the reactions onto P81 ion exchange filter paper. Unbound phosphate was removed by extensive washing of the filters in 0.75% phosphoric acid. […] IC50 values and curve fits were obtained using Prism (Graph Pad Software). DYRK1B used in the above assays are further described in the below table: [table] Exemplary compound dilution series, final concentrations of compound in the assay vessel; the individual concentrations and the range of concentrations covered by the dilution series may differ for each compound, as long as enough data points are obtained to determine the compound's IC50: DYRK 1[…].

Chain of DYRK1B (Q9Y463 whole entry): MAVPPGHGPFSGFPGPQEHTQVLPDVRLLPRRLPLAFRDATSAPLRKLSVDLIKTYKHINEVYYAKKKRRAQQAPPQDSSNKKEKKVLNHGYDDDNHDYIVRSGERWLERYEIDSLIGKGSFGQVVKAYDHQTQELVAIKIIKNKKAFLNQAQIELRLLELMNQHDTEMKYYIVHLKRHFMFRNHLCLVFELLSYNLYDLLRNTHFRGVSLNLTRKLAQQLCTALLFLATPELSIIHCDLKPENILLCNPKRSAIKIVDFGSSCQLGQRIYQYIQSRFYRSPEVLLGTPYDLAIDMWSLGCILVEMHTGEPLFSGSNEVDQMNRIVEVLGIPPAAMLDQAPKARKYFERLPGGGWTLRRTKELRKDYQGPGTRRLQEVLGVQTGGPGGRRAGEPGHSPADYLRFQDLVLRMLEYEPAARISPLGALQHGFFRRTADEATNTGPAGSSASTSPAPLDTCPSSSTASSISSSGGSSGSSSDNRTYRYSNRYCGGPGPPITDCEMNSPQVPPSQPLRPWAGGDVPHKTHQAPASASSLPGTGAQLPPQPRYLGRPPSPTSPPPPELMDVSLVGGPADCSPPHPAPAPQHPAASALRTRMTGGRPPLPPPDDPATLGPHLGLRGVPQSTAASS

First: COC(=O)c1n[nH]c(NC(=O)c2csc(-c3ccc4c(c3)CCO4)n2)n1 [Compound 15, Methyl 5-(2-(2,3-dihydrobenzofuran-5-yl)thiazole-4-carboxamido)-1H-1,2,4-triazole-3-carboxylate]
Second: CS(=O)(=O)c1n[nH]c(NC(=O)c2csc(-c3ccc4c(c3)CCO4)n2)n1 [Compound 43, 2-(2,3-Dihydrobenzofuran-5-yl)-N-(3-(methylsulfonyl)-1H-1,2,4-triazol-5-yl)thiazole-4-carboxamide]
The IC50 of the first is 3.5-fold lower: 0.152 µM for the first, 0.535 µM for the second.

First: O=C(Nc1ncccc1O)c1csc(-c2ccc3c(c2)CCO3)n1 [Compound 16, 2-(2,3-Dihydrobenzofuran-5-yl)-N-(3-hydroxypyridin-2-yl)thiazole-4-carboxamide]
Second: O=C(Nc1nccs1)c1csc(-c2ccc3c(c2)CCO3)n1 [Compound 65, 2-(2,3-Dihydro-1-benzofuran-5-yl)-N-(1,3-thiazol-2-yl)-1,3-thiazole-4-carboxamide]
The IC50 of the first is 3.6-fold higher: 0.177 µM for the first, 0.0487 µM for the second.

First: N#Cc1ccnc(NC(=O)c2csc(-c3ccc4c(c3)CCO4)n2)c1 [Compound 18, N-(4-Cyanopyridin-2-yl)-2-(2,3-dihydrobenzofuran-5-yl)thiazole-4-carboxamide]
Second: O=C(Nc1cc[nH]n1)c1csc(-c2ccc3c(c2)CCO3)n1 [Compound 62, 2-(2,3-Dihydro-1-benzofuran-5-yl)-N-(1H-pyrazol-3-yl)-1,3-thiazole-4-carboxamide]
The IC50 of the first is 2.2-fold lower: 0.0195 µM for the first, 0.0424 µM for the second.

Going from `CSc1nnc(NC(=O)c2csc(-c3ccc4c(c3)CCO4)n2)[nH]1` [Compound 21, 2-(2,3-Dihydrobenzofuran-5-yl)-N-(5-(methylthio)-4H-1,2,4-triazol-3-yl)thiazole-4-carboxamide] to `O=C(Nc1nnc(C(=O)O)[nH]1)c1csc(-c2ccc3c(c2)CCO3)n1` [Compound 31, 5-(2-(2,3-Dihydrobenzofuran-5-yl)thiazole-4-carboxamido)-4H-1,2,4-triazole-3-carboxylic acid], the IC50 rises from 0.0183 µM to 0.0681 µM (3.7-fold).

First: CC(C)Sc1n[nH]c(NC(=O)c2csc(-c3ccc4c(c3)CCO4)n2)n1 [Compound 24, 2-(2,3-Dihydrobenzofuran-5-yl)-N-(3-(isopropylthio)-1H-1,2,4-triazol-5-yl)thiazole-4-carboxamide]
Second: CC(C)CSc1n[nH]c(NC(=O)c2csc(-c3ccc4c(c3)CCO4)n2)n1 [Compound 34, 2-(2,3-Dihydrobenzofuran-5-yl)-N-(3-(isobutylthio)-1H-1,2,4-triazol-5-yl)thiazole-4-carboxamide]
The IC50 of the first is 2.1-fold lower: 0.0178 µM for the first, 0.0381 µM for the second.

First: CCCSc1n[nH]c(NC(=O)c2csc(-c3ccc4c(c3)CCO4)n2)n1 [Compound 30, 2-(2,3-Dihydrobenzofuran-5-yl)-N-(3-(propylthio)-1H-1,2,4-triazol-5-yl)thiazole-4-carboxamide]
Second: N#CCSc1n[nH]c(NC(=O)c2csc(-c3ccc4c(c3)CCO4)n2)n1 [Compound 38, N-(3-((Cyanomethyl)thio)-1H-1,2,4-triazol-5-yl)-2-(2,3-dihydrobenzofuran-5-yl)thiazole-4-carboxamide]
The IC50 of the first is 2-fold higher: 0.00797 µM for the first, 0.00397 µM for the second. The second is the more potent here.

Compared with `O=C(Nc1nc(SCc2ccc(Cl)cc2)n[nH]1)c1csc(-c2ccc3c(c2)CCO3)n1` [Compound 33, N-(3-((4-Chlorobenzyl)thio)-1H-1,2,4-triazol-5-yl)-2-(2,3-dihydrobenzofuran-5-yl)thiazole-4-carboxamide], `O=C(Nc1nc(SCCc2ccccc2)n[nH]1)c1csc(-c2ccc3c(c2)CCO3)n1` [Compound 37, 2-(2,3-Dihydrobenzofuran-5-yl)-N-(3-(phenethylthio)-1H-1,2,4-triazol-5-yl)thiazole-4-carboxamide] is 6-fold lower in IC50: 0.337 µM for the first, 0.056 µM for the second. The second is the more potent here.

Compared with `O=C(Nc1nc(CCc2ccccc2)n[nH]1)c1csc(-c2ccc3c(c2)CCO3)n1` [Compound 36, 2-(2,3-Dihydrobenzofuran-5-yl)-N-(3-phenethyl-1H-1,2,4-triazol-5-yl)thiazole-4-carboxamide], `O=C(Nc1nc2ccccc2[nH]1)c1csc(-c2ccc3c(c2)CCO3)n1` [Compound 50, N-(1H-1,3-Benzodiazol-2-yl)-2-(2,3-dihydro-1-benzofuran-5-yl)-1,3-thiazole-4-carboxamide] is 17-fold lower in IC50: 0.112 µM for the first, 0.00673 µM for the second.

Compared with `C=CCSc1n[nH]c(NC(=O)c2csc(-c3ccc4c(c3)CCO4)n2)n1` [Compound 39, N-(3-(Allylthio)-1H-1,2,4-triazol-5-yl)-2-(2,3-dihydrobenzofuran-5-yl)thiazole-4-carboxamide], `CCOC(=O)CSc1n[nH]c(NC(=O)c2csc(-c3ccc4c(c3)CCO4)n2)n1` [Compound 61, Ethyl 2-({5-[2-(2,3-dihydro-1-benzofuran-5-yl)-1,3-thiazole-4-amido]-1H-1,2,4-triazol-3-yl}sulfanyl)acetate] is 3.3-fold higher in IC50: 0.0119 µM for the first, 0.0391 µM for the second.

Compared with `O=C(Nc1nc2ccc(CN3CCOCC3)cc2s1)c1csc(-c2ccc3c(c2)CCO3)n1` [Compound 40, 2-(2,3-Dihydrobenzofuran-5-yl)-N-(6-(morpholinomethyl)benzo[d]thiazol-2-yl)thiazole-4-carboxamide], `O=C(Nc1nc2ccc(C(=O)N3CCOCC3)cc2s1)c1csc(-c2ccc3c(c2)CCO3)n1` [Compound 51, 2-(2,3-Dihydro-1-benzofuran-5-yl)-N-[6-(morpholine-4-carbonyl)-1,3-benzothiazol-2-yl]-1,3-thiazole-4-carboxamide] is 1.7-fold lower in IC50: 0.0157 µM for the first, 0.00917 µM for the second.

Compared with `O=C(Nc1nc(-c2ccncc2)n[nH]1)c1csc(-c2ccc3c(c2)CCO3)n1` [Compound 42, 2-(2,3-Dihydrobenzofuran-5-yl)-N-(3-(pyridin-4-yl)-1H-1,2,4-triazol-5-yl)thiazole-4-carboxamide], `O=C(Nc1nnc(-c2ccncc2)s1)c1csc(-c2ccc3c(c2)CCO3)n1` [Compound 59, 2-(2,3-Dihydro-1-benzofuran-5-yl)-N-[5-(pyridin-4-yl)-1,3,4-thiadiazol-2-yl]-1,3-thiazole-4-carboxamide] is 15-fold higher in IC50: 0.00206 µM for the first, 0.0315 µM for the second. The first is the more potent here.

`O=C(Nc1nc2cc(C(=O)c3cccs3)ccc2[nH]1)c1csc(-c2ccc3c(c2)CCO3)n1` [Compound 48, 2-(2,3-Dihydro-1-benzofuran-5-yl)-N-[5-(thiophene-2-carbonyl)-1H-1,3-benzodiazol-2-yl]-1,3-thiazole-4-carboxamide] and `O=C(Nc1nc2cc(C(=O)c3ccc[nH]3)ccc2[nH]1)c1csc(-c2ccc3c(c2)CCO3)n1` [Compound 49, 2-(2,3-Dihydro-1-benzofuran-5-yl)-N-[5-(H-pyrrole-2-carbonyl)-1H-1,3-benzodiazol-2-yl]-1,3-thiazole-4-carboxamide] are within 1.5-fold of each other in IC50: 0.00557 µM for the first, 0.00663 µM for the second.

First: O=C(Nc1nnc(N2CCCCC2)s1)c1csc(-c2ccc3c(c2)CCO3)n1 [Compound 52, 2-(2,3-Dihydro-1-benzofuran-5-yl)-N-[5-(piperidin-1-yl)-1,3,4-thiadiazol-2-yl]-1,3-thiazole-4-carboxamide]
Second: O=C(Nc1nnc(N2CCOCC2)s1)c1csc(-c2ccc3c(c2)CCO3)n1 [Compound 56, 2-(2,3-Dihydro-1-benzofuran-5-yl)-N-[5-(morpholin-4-yl)-1,3,4-thiadiazol-2-yl]-1,3-thiazole-4-carboxamide]
The IC50 of the first is 1.7-fold lower: 0.0126 µM for the first, 0.0217 µM for the second.

Going from `CCOC(=O)C1CCN(c2nnc(NC(=O)c3csc(-c4ccc5c(c4)CCO5)n3)s2)CC1` [Compound 53, Ethyl 1-{5-[2-(2,3-dihydro-1-benzofuran-5-yl)-1,3-thiazole-4-amido]-1,3,4-thiadiazol-2-yl}piperidine-4-carboxylate] to `CN1CCN(c2nnc(NC(=O)c3csc(-c4ccc5c(c4)CCO5)n3)s2)CC1` [Compound 57, 2-(2,3-Dihydro-1-benzofuran-5-yl)-N-[5-(4-methylpiperazin-1-yl)-1,3,4-thiadiazol-2-yl]-1,3-thiazole-4-carboxamide], the IC50 rises from 0.0144 µM to 0.0264 µM (1.8-fold). The first is the more potent here.

Compared with `Cn1c(NC(=O)c2csc(-c3ccc4c(c3)CCO4)n2)nc2ccccc21` [Compound 54, 2-(2,3-Dihydro-1-benzofuran-5-yl)-N-(1-methyl-1H-1,3-benzodiazol-2-yl)-1,3-thiazole-4-carboxamide], `Cc1cnc(NC(=O)c2csc(-c3ccc4c(c3)CCO4)n2)s1` [Compound 58, 2-(2,3-Dihydro-1-benzofuran-5-yl)-N-(5-methyl-1,3-thiazol-2-yl)-1,3-thiazole-4-carboxamide] is 1.6-fold higher in IC50: 0.0176 µM for the first, 0.0276 µM for the second. The first is the more potent here.

Compared with `CCOC(=O)c1c[nH]nc1NC(=O)c1csc(-c2ccc3c(c2)CCO3)n1` [Compound 55, Ethyl 3-[2-(2,3-dihydro-1-benzofuran-5-yl)-1,3-thiazole-4-amido]-1H-pyrazole-4-carboxylate], `O=C(Nc1nc[nH]n1)c1csc(-c2ccc3c(c2)CCO3)n1` [Compound 63, 2-(2,3-Dihydro-1-benzofuran-5-yl)-N-(1H-1,2,4-triazol-3-yl)-1,3-thiazole-4-carboxamide] is 2.3-fold higher in IC50: 0.0206 µM for the first, 0.0471 µM for the second.

`O=C(c1ccccc1)c1ccc2[nH]c(NC(=O)c3csc(-c4ccc5c(c4)CCO5)n3)nc2c1` [Compound 60, N-(5-Benzoyl-1H-1,3-benzodiazol-2-yl)-2-(2,3-dihydro-1-benzofuran-5-yl)-1,3-thiazole-4-carboxamide] and `COc1nc(NC(=O)c2csc(-c3ccc4c(c3)CCO4)n2)ns1` [Compound 64, 2-(2,3-Dihydro-1-benzofuran-5-yl)-N-(5-methoxy-1,2,4-thiadiazol-3-yl)-1,3-thiazole-4-carboxamide] are within 1.5-fold of each other in IC50: 0.0383 µM for the first, 0.0483 µM for the second.
